Assay results from patent US6368580B1, “Composition suitable as food integrator and for the treatment of intestinal disorders and alterations of the bacterial flora” (Giuliani S.p.A, priority 1999, dated 2002).
“Also recorded” adds a separate entry of the source.

Legend:
[1] = test system: Bacillus coagulans; test: Lactic acid (L+) production in Bacillus coagulans broth culture; assay type: cell-based; conditions: 24-hour broth culture to which lysine was added; higher than blank controls or other amino acids
[2] = test system: Bacillus coagulans; test: Growth of Bacillus coagulans in Sabouraud's broth with added nutrient, optical density by biophotometer; assay type: cell-based; conditions: for increase in growth of Bacillus coagulans (optical density A630), preliminary evaluations of amino acids: aspartic acid, proline, lysine, tryptophan compared, biophotometer
Protocol: Consequently, microbiological tests have been conducted by adding a number of amino acids (particularly aspartic acid, lysine, proline) to the culture medium specific for Lactobacillus. […] Evaluation of the growth of Bacillus coagulans was performed using and agar/Sabouraud's broth to which 0.5% of yeast extract was added. At this point, an attempt was made to determine which of the various amino acid components present in the yeast (aspartic acid, proline, lysine, tryptophan), and in what concentrations, were able to favor more vigorous development of the microorganism. The increase in growth was evaluated by biophotometer which recorded the optical density (A630).
In special sterilized cuvettes for biophotometry, broth cultures were prepared, with the addition to the base culture medium (10 ml of Sabouraud's broth) of: […]
One cuvette containing Sabouraud's broth alone was used as control. Each of the four broth cultures was subsequently inoculated with 100 μl of a dilution of a broth culture (overnight incubation) of Bacillus coagulans made starting from the lyophilized powder (final concentration of 10^4 cfu/ml).
The growth of the culture was evaluated in terms of optical density, using a biophotometer, which is capable of determining the degree of development on the basis of the increase in turbidity. The curvettes thus prepared were set inside the compartment of the instrument in the presence of a magnetic stirrer that was able to keep the culture in uniform suspension, a condition which enables a proper reading of the turbidity of the culture medium to be made.
The optical density appears on the ordinate, the values proportional to the number of bacteria produced. The time is given on the abscissa. The four curves shown on the graph identify the behavior, respectively, of lysine (at a concentration of 0.025 mg/ml), yeast (5 mg/ml), proline (0.01 mg/ml), and the Sabouraud's culture medium reference standard.

| Structure (SMILES) | lactic acid (L+) production [1] | growth of the Lactobacillus cells and formation of lactic acid (L+) ([2]; amino acid added to the culture medium, lysine at concentrations of the order of 0.1-1 mg/ml) | increase in growth of Bacillus coagulans (optical density A630), preliminary evaluations of amino acids [2] | growth of Bacillus coagulans (optical density, growth curve) ([2]; lysine 0.025 mg/ml in Sabouraud's broth, overnight incubation at 37° C., compared with proline 0.01 mg/ml, yeast 5 mg/ml, broth alone) |
| --- | --- | --- | --- | --- |
| NCCCC[C@H](N)C(=O)O [lysine] | 486 mg/L | enhanced the growth of the Lactobacillus cells and the formation of lactic acid (L^+) | best results | most effective nutrient; also recorded: significantly increases the growth curve, reducing the latency phase and increasing the number of cells |
| O=C(O)[C@@H]1CCCN1 [proline, reference compound] |  |  | best results |  |
